Measurements: PMC7064401 (Journal of molecular microbiology and biotechnology, 2019)

Molecular target: BexImpX (Pseudobdellovibrio exovorus, UniProt M4VA25)
Test: inhibition of riboflavin uptake in E. coli expressing impX, fluorescence
Type: cell-based
Details: read-out: % inhibition at 0.9 mM

SMILES | inhibition at 900 µM [%]
Cc1ncc(C[n+]2csc(CCOP(=O)(O)OP(=O)(O)O)c2C)c(N)n1 [thiamine pyrophosphate] | < 5
NC(=O)c1cccnc1 [nicotinamide] | < 5
